# Active and inactive are the calls of the source.
# Legend:
# [1] = biological target: T1, Mu-type opioid receptor (Homo sapiens, UniProt P35372); test: (§1) Counterscreen for agonists of heterodimerization of the mu 1 (OPRM1) and delta 1 (OPRD1) opioid receptors: Luminescence-based cell-based high throughput dose response assay to identify agonists of OPRM1 homodimerization.; type: functional
# [2] = biological target: Delta-type opioid receptor (Homo sapiens, UniProt P41143); test: as §1, with “of OPRD1” for “of OPRM1”, “homodimerization. [Related pubchem assays (depositor defined):AID504326, AID504355, AID504692, AID504904, AID504905]” for “homodimerization.”; type: functional
# Chain of Delta-type opioid receptor (P41143 whole entry): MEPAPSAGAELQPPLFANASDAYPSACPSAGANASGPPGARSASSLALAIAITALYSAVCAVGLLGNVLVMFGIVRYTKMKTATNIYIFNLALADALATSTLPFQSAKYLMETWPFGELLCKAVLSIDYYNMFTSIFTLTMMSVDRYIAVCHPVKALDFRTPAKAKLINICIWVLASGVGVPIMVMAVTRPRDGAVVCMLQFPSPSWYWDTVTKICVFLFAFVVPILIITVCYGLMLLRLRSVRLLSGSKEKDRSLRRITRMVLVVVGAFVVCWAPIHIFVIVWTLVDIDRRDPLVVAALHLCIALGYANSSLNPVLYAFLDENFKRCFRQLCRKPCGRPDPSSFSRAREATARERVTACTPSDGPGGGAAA
# [3] = biological target: 5-hydroxytryptamine receptor 5A (Homo sapiens, UniProt P47898); test: Counterscreen for agonists of OPRM1-OPRD1 heterodimerization: luminescence-based cell-based high throughput dose response assay to identify agonists of 5-hydroxytryptamine (serotonin) 5A receptor (HTR5A). [Related pubchem assays (depositor defined):AID504326, AID504355, AID504692, AID504904, AID504905]; type: functional
# Chain of 5-hydroxytryptamine receptor 5A (P47898 whole entry): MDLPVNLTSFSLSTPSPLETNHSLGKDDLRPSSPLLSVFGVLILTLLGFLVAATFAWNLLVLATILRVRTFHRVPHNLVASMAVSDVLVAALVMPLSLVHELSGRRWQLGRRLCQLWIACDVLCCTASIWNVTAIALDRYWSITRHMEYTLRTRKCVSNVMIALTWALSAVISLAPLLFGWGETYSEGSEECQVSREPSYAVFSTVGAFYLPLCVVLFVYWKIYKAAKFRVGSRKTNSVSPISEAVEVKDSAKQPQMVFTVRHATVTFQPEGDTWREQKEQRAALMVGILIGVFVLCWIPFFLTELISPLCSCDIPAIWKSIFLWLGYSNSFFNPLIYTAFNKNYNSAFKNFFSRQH
# [4] = biological target: T2, Hexokinase HKDC1 (Homo sapiens, UniProt Q2TB90); test: analog inhibition of human HKDC1 activity – biochemical, set 2, SAR follow-up (AID 588355); type: functional
# T2 sequence (Q2TB90 whole entry): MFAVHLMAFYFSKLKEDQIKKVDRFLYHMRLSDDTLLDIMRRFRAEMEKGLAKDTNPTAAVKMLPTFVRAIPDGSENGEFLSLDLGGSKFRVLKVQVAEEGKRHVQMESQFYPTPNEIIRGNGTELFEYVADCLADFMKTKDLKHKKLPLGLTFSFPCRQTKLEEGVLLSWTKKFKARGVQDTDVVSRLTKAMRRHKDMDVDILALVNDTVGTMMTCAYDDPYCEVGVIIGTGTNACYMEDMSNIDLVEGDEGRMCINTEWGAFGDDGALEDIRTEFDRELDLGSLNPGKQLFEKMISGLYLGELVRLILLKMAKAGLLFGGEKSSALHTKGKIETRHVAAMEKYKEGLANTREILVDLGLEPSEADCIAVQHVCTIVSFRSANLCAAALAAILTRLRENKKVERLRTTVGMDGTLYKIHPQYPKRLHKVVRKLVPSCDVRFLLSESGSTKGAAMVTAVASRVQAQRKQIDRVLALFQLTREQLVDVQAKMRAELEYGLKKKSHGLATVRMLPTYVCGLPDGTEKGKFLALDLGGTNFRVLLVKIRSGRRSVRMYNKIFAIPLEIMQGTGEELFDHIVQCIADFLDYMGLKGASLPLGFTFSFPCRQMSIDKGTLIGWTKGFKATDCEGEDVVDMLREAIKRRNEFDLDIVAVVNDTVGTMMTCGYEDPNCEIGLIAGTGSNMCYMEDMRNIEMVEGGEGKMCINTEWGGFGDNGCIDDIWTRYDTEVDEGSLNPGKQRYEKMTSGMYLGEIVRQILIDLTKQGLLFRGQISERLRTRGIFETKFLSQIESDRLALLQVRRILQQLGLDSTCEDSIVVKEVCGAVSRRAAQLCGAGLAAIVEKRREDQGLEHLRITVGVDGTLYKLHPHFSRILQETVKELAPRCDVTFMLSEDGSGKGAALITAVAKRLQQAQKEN
# [5] = biological target: T3, Hexokinase-1 (Homo sapiens, UniProt P19367); test: hexokinase 1 activity inhibitors, potency – biochemical, set 2, resazurin fluorescence coupled readout, selectivity assay for HKDC1 inhibitor project, SAR follow-up (AID 588356); type: functional
# T3 sequence (P19367 whole entry): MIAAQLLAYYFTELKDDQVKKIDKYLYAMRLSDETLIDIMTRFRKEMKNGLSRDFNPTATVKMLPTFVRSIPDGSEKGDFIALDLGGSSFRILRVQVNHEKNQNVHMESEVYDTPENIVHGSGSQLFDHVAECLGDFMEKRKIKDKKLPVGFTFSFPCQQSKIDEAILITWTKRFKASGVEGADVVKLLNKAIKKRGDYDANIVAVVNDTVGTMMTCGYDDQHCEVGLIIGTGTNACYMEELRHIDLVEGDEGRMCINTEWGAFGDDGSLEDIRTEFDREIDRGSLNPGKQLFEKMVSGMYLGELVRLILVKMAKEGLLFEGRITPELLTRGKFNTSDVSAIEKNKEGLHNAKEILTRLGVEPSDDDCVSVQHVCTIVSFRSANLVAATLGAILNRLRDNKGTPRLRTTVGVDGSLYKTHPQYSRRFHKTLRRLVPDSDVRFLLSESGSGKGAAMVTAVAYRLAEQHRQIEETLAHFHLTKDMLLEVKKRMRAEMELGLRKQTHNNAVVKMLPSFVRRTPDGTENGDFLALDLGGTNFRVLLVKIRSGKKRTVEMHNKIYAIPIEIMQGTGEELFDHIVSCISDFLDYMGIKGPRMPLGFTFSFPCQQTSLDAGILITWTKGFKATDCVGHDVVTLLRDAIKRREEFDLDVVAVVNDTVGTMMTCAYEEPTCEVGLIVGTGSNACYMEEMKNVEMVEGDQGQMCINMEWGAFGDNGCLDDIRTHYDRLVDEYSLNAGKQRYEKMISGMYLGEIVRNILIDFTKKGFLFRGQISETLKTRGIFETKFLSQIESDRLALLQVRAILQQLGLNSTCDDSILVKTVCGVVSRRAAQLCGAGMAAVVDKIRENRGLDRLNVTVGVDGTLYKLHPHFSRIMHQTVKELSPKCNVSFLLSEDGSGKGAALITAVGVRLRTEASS
# [6] = biological target: T4, Neuropeptides B/W receptor type 1 (Homo sapiens, UniProt P48145); test: Fluorescence-based dose response cell-based high throughput screening assay to identify antagonists of the G-protein coupled receptor 7 (GPR7). [Related pubchem assays: 1952 (Screening assay (GPR7 antagonists).), 1880 (Summary AID.)]; type: functional
# T4 sequence (P48145 whole entry): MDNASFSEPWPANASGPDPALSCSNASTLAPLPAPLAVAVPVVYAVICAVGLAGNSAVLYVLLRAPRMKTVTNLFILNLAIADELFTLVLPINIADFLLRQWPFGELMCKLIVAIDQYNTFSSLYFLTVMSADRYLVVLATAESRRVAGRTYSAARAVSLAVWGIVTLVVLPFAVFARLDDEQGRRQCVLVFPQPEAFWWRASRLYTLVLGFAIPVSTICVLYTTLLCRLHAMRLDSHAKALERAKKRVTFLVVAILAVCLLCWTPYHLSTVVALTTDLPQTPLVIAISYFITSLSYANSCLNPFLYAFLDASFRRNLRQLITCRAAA
# [7] = biological target: Melanin-concentrating hormone receptor 1 (Homo sapiens, UniProt Q99705); test: Fluorescence-based counterscreen for antagonists of the G-protein coupled receptor 7 (GPR7): cell-based high throughput dose response assay to identify antagonists of the melanin-concentrating hormone receptor 1 (MCHR1).; type: functional
# Chain of Melanin-concentrating hormone receptor 1 (Q99705 whole entry): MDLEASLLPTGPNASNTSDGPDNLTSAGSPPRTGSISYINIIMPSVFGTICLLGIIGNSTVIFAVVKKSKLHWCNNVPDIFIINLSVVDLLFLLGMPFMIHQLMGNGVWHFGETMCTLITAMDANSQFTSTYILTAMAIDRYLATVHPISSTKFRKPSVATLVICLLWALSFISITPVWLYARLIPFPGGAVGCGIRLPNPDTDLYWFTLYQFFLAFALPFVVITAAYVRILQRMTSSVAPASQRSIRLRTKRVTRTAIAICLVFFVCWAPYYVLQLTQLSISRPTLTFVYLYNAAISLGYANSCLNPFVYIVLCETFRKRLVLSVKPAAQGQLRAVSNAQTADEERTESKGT
# [8] = cells; type: functional, cell-based
# [9] = biological target: T5, Trace amine-associated receptor 1 (Homo sapiens, UniProt Q96RJ0); test: Counterscreen for agonists of the human trace amine associated receptor 1 (hTAAR1): Fluorescence-based cell-based high throughput dose response assay to identify hTAAR1 agonist that also desensitize TAAR1 receptor response.; type: functional
# T5 sequence (Q96RJ0 whole entry): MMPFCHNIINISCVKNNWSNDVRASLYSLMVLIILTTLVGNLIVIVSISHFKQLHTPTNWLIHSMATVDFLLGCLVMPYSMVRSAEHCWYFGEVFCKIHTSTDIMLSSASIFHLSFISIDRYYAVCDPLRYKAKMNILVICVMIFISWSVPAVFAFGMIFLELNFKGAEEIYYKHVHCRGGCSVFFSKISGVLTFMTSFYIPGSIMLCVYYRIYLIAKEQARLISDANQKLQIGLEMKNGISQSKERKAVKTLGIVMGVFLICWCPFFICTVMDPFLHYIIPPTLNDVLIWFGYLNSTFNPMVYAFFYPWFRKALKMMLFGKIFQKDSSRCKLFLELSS
# [10] = biological target: T5, Trace amine-associated receptor 1; test: Fluorescence-based cell-based high throughput dose response assay to identify agonists of the human trace amine associated receptor 1 (TAAR1).; type: functional
# [11] = biological target: 5-hydroxytryptamine receptor 2A (Mus musculus, UniProt P35363); type: functional, cell-based;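 further: CHO-K1 cells with tagged receptor and beta-arrestin; agonist potency measured as compound-induced activation of the receptor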
# Chain of 5-hydroxytryptamine receptor 2A (P35363 whole entry): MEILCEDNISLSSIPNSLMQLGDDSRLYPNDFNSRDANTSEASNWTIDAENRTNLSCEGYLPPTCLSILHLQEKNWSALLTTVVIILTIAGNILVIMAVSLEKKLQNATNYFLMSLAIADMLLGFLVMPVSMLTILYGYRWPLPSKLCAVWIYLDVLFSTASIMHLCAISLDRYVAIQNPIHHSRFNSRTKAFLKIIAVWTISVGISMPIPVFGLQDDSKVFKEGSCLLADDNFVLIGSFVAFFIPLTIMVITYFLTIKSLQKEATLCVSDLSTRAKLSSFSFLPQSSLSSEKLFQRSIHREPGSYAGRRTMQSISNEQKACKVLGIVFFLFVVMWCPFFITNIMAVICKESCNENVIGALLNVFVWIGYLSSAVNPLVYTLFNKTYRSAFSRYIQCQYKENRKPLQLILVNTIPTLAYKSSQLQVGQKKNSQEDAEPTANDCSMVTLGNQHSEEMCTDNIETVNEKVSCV
# [12] = cells; type: functional, cell-based; remark: listed apart in the source
# [13] = biological target: Voltage-gated inwardly rectifying potassium channel KCNH2 (Homo sapiens, UniProt Q12809); conditions: Potency;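 further: confirmatory quantitative high-throughput screen measuring inhibition of hERG channel activity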
# Chain of Voltage-gated inwardly rectifying potassium channel KCNH2 (Q12809 whole entry): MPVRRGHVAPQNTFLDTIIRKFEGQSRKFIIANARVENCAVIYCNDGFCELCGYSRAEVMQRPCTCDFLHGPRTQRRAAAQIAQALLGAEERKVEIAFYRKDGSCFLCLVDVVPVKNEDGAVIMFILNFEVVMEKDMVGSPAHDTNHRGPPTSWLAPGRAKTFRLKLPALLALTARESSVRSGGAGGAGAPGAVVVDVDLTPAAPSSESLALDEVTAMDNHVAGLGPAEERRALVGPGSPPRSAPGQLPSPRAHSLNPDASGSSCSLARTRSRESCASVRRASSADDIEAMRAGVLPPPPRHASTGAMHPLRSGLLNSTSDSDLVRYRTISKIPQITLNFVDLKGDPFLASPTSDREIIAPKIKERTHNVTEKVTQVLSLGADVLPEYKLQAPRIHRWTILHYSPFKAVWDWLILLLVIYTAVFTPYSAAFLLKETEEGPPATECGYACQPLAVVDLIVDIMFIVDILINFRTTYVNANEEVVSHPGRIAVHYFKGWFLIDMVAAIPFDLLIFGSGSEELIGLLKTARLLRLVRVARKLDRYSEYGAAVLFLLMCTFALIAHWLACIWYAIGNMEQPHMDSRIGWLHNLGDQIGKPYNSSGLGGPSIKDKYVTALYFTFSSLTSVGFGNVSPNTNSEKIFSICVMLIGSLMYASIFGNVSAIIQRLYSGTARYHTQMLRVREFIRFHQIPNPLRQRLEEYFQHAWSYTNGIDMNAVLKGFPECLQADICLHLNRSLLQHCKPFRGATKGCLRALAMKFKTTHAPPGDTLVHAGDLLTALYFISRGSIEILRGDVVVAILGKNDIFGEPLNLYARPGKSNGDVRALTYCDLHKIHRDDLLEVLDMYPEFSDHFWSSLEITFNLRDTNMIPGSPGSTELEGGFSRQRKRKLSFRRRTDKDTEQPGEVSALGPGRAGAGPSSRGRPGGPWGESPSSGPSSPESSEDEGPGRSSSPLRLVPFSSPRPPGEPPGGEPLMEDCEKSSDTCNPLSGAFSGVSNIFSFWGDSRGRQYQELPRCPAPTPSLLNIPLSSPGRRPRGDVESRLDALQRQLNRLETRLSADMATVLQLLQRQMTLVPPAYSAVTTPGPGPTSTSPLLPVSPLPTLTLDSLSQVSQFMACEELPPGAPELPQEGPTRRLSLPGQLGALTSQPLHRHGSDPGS
# [14] = biological target: T1, Mu-type opioid receptor; type: functional, cell-based
# [15] = tested on: HeLa; test: ATP-based viability loss in HeLa cells – cell-based, CellTiter-Glo luminescence, cherry-pick samples, cytotoxicity control for MITF activator project, dose response (AID 540259); type: functional; conditions: Homo sapiens
# [16] = biological target: T6, Protein skinhead-1 (Caenorhabditis elegans, UniProt P34707); type: functional
# T6 sequence (P34707 whole entry): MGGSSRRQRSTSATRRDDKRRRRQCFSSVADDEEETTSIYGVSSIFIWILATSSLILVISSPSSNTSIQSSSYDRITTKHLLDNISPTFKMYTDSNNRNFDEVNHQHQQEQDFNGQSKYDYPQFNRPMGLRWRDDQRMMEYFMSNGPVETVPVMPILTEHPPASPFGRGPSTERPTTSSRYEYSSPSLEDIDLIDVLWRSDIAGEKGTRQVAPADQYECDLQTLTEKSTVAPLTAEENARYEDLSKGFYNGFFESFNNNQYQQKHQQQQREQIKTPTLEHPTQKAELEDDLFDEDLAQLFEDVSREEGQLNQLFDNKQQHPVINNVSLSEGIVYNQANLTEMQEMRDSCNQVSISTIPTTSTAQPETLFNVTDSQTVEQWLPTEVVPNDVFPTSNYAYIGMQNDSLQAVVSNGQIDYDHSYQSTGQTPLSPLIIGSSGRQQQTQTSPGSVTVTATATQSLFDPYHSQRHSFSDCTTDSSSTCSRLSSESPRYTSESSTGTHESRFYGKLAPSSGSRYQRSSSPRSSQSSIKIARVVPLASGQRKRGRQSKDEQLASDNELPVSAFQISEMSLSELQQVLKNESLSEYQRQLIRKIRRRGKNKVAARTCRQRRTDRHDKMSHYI
# [17] = general cell-killing toxicity readout – plate reader, dry powder samples, cytotoxicity control for PAX8 inhibitor project, dose response (AID 743021); type: functional, cell-based
# [18] = tested on: Escherichia coli; test: microbe, parasite or virus in culture
# [19] = biological target: T7, Dual specificity protein phosphatase 6 (Rattus norvegicus, UniProt Q64346)
# T7 sequence (Q64346 whole entry): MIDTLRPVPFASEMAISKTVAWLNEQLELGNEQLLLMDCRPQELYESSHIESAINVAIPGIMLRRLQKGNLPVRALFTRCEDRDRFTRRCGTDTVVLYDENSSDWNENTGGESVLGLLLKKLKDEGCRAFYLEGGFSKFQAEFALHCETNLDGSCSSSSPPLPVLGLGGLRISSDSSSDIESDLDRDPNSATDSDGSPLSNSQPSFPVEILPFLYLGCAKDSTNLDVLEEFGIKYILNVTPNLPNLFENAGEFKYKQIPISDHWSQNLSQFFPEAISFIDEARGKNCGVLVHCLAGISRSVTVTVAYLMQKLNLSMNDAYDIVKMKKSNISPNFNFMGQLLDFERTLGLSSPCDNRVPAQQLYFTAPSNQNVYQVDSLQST
# [20] = biological target: T8, Tyrosine-protein phosphatase non-receptor type 7 (Homo sapiens, UniProt P35236); type: functional
# T8 sequence (P35236 whole entry): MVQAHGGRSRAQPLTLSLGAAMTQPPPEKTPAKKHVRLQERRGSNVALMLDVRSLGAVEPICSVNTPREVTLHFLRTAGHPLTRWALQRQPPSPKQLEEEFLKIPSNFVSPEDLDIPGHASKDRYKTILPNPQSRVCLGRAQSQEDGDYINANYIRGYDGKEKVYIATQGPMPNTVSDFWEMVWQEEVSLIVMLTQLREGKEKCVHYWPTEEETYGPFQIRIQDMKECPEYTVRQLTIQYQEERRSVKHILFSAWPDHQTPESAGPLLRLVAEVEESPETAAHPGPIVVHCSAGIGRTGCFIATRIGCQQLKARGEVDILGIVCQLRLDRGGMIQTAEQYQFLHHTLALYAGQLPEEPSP
# [21] = biological target: Glyceraldehyde-3-phosphate dehydrogenase (Homo sapiens, UniProt P04406)
# Chain of Glyceraldehyde-3-phosphate dehydrogenase (P04406 whole entry): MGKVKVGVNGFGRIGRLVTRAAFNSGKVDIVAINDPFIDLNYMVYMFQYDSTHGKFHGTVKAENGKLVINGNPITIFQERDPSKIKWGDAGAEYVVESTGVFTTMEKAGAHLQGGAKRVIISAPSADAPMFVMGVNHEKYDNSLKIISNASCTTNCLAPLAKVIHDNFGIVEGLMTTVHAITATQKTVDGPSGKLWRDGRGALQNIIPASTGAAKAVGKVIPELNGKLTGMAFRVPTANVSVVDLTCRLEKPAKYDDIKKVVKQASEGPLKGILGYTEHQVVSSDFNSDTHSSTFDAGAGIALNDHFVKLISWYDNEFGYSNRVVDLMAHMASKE
# [22] = biological target: T7, Dual specificity protein phosphatase 6; type: functional
# T1 sequence (P35372 whole entry): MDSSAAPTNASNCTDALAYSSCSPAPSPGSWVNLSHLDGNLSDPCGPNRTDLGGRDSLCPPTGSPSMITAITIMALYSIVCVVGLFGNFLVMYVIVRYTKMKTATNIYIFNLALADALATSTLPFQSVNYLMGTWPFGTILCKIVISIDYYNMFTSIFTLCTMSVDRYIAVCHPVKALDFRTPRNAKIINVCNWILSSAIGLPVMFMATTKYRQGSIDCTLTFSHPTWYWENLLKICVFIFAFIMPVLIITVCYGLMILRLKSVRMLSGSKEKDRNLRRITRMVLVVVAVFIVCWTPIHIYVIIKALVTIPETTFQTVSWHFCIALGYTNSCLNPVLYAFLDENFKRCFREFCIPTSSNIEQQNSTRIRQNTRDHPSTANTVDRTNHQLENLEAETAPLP
structure (smiles),measurement,setting,value
CCOC(=O)c1c(C)[nH]c(C(=O)OC/C(O)=C(\C#N)c2nc3ccccc3[nH]2)c1C,EC50,[1],> 92.5 µM (inactive)
same,EC50,[2],> 92.5 µM (inactive)
same,EC50,[3],> 92.5 µM (inactive)
CCCCN1C(=O)C(NC(C)=O)c2cc(Br)ccc21 (stereo not drawn),IC50,[4],> 80 µM (inactive)
same,IC50,[5],> 80 µM (inactive)
same,IC50,[6],> 43.8 µM (not active)
same,IC50,[7],> 43.8 µM (not active)
Oc1ccc(C2CNCc3sccc32)cc1O (stereo not drawn),IC50,[8],> 29.9 µM (inactive)
same,IC50,[9],4.33 µM (active)
same,EC50,[10],0.752 µM (active)
same,EC50,[11],0.452 µM (active)
same,EC50,[12],> 29.9 µM (inactive)
same,AC50,[13],11.2 µM (inconclusive)
same,EC50,[14],92.5 µM (inactive)
COc1ccc2cc(-c3nc4ccccc4n3C)c(=O)oc2c1,AC50,[15],174 µM (active)
CC1CC(OC(=O)c2ccccc2O)CC(C)(C)C1 (stereo not drawn) [HOMOSALATE],AC50,[13],6.31 µM (inconclusive)
COc1ccc(C(=O)NN=C(NS(=O)(=O)c2ccc(C)cc2)c2ccccc2)cc1,IC50,[16],> 100 µM (inactive)
same,AC50,[15],55.4 µM (active)
COc1ccc(C2Nc3ccccc3C(=O)N2c2ccc(F)cc2)cc1CSc1ccccn1 (stereo not drawn),EC50,[1],> 92.4 µM (inactive)
same,EC50,[2],> 30.8 µM (inactive)
same,AC50,[17],48.8 µM (active)
same,EC50,[3],> 92.4 µM (inactive)
COc1cc(Cl)ccc1OCc1cc(C(=O)NCC(C)(C)N2CCOCC2)no1,AC50,[18],33.9 µM (active)
CC(C)OCC(O)CN1CCN(CC(O)COc2ccc3c(c2)OCO3)CC1 (stereo not drawn),AC50,[18],62.7 µM (active)
CCCn1c(=O)nc(NCCc2ccccc2)[nH]c1=O,IC50,[19],> 100 µM (inactive)
same,IC50,[20],> 100 µM (not active)
same,IC50,[21],> 100 µM (not active)
same,IC50,[22],> 100 µM (inactive)
